Results on one compound are retold here after paper PMC10478824, “Development of FAPI Tetramers to Improve Tumor Uptake and Efficacy of FAPI Radioligand Therapy” (Journal of Nuclear Medicine, 2023).

One data set has as its system U87MG tumors. The experiment in a line: FAP-targeted radioligand therapy in U87MG tumor-bearing mice. It counts as in vivo. Particulars: 29.6 MBq every 72 h, 3 doses. As to the method: (§1) All animal experimental procedures were approved by the Animal Care and Ethics Committee of Xiamen University and performed in accordance with the Guidelines for the Care and Use of Animals of the Xiamen University Laboratory Animal Center. For in vivo experiments, 6-wk-old BALB/c nude mice (Beijing Vital River Laboratory Animal Technology Co., Ltd.) were subcutaneously inoculated with HT-1080-FAP or U87 cells (5 × 10^6 in 100 μL of phosphate-buffered saline) in the right shoulder.
When the tumor volume reached approximately 100 mm^3, the mice were randomized into 4 groups for radioligand therapy with ^177Lu-labeled monomeric, dimeric, and tetrameric FAPIs (6/group): group A, saline; group B, 29.6 MBq of ^177Lu-FAPI-46; group C, 29.6 MBq of ^177Lu-DOTA-2P(FAPI)2; and group D, 29.6 MBq of ^177Lu-DOTA-4P(FAPI)4. […] HT-1080-FAP, a FAP-transfected tumor xenograft with much higher levels of FAP expression than U87MG, was also used in this study. Therefore, the frequency of administration was higher in U87MG tumor–bearing mice (every 72 h, 3 doses in total) than in the HT-1080-FAP models (a single dose). Weight and tumor volume were monitored every 2 d, and the mice were euthanized when the average tumor volume exceeded 1,500 mm^3, when the tumor was ulcerated, or when weight loss was more than 20%. […]

Data set [1] deals with HT-1080-FAP tumors. The experiment in a line: FAP-targeted radioligand therapy in HT-1080-FAP tumor-bearing mice. It is filed as in vivo. Here is the method:
as §1
When the tumor volume reached approximately 100 mm^3, the mice were randomized into 4 groups for radioligand therapy with ^177Lu-labeled monomeric, dimeric, and tetrameric FAPIs (6/group): group A, saline; group B, 29.6 MBq of ^177Lu-FAPI-46; group C, 29.6 MBq of ^177Lu-DOTA-2P(FAPI)2; and group D, 29.6 MBq of ^177Lu-DOTA-4P(FAPI)4. […] HT-1080-FAP, a FAP-transfected tumor xenograft with much higher levels of FAP expression than U87MG, was also used in this study. Therefore, the frequency of administration was higher in U87MG tumor–bearing mice (every 72 h, 3 doses in total) than in the HT-1080-FAP models (a single dose). Weight and tumor volume were monitored every 2 d, and the mice were euthanized when the average tumor volume exceeded 1,500 mm^3, when the tumor was ulcerated, or when weight loss was more than 20%. To further assess radioligand therapy–related toxicity effects, the main organs were collected from the ^177Lu-DOTA-4P(FAPI)4 group on day 22 […] hematoxylin and eosin staining ([16]).

Data set [2] in a line: In vitro stability in phosphate-buffered saline and fetal bovine serum (radio-HPLC). It counts as in vitro ADME. Particulars: 24 h incubation in phosphate-buffered saline and fetal bovine serum.
Data set [3] relates to HT-1080-FAP tumors. The experiment in a line: Ex vivo biodistribution of ^177Lu-labeled FAPIs in HT-1080-FAP tumor-bearing mice. Particulars: for tumor uptake: HT-1080-FAP tumors. Here is the method:
as §1
Three groups of HT-1080-FAP mice were injected with 0.74 MBq of ^177Lu-FAPI-46, ^177Lu-DOTA-2P(FAPI)2, or ^177Lu-DOTA-4P(FAPI)4 and were euthanized at different time points (24–48 h for monomers and 24–96 h for dimers and tetramers, 3/group). Blood, tumor, muscle, and major organs were weighed and measured using a γ-counter (WIZARD^2 2480). Data were normalized to the percentage injected dose per gram (%ID/g) using 1% of total counts.

The mark [4] stands for this setting: HT-1080-FAP tumor-bearing mice, 48 h after injection.

Regarding `CN(CCCN1CCN(C(=O)COCCOCCOCCNC(=O)CCC(=O)NCCCC[C@H](NC(=O)CCC(=O)NCCOCCOCCOCC(=O)N2CCN(CCCN(C)c3ccc4nccc(C(=O)NCC(=O)N5CC(F)(F)C[C@H]5C#N)c4c3)CC2)C(=O)NCCCC[C@H](NC(=O)[C@H](CCCCNC(=O)CN2CCN(CC(=O)[O-])CCN(CC(=O)[O-])CCN(CC(=O)[O-])CC2)NC(=O)CCC(=O)NCCOCCOCCOCC(=O)N2CCN(CCCN(C)c3ccc4nccc(C(=O)NCC(=O)N5CC(F)(F)C[C@H]5C#N)c4c3)CC2)C(=O)NCCOCCOCCOCC(=O)N2CCN(CCCN(C)c3ccc4nccc(C(=O)NCC(=O)N5CC(F)(F)C[C@H]5C#N)c4c3)CC2)CC1)c1ccc2nccc(C(=O)NCC(=O)N3CC(F)(F)C[C@H]3C#N)c2c1.[177Lu+3]` [^177Lu-DOTA-4P(FAPI)4], the median survival result with U87MG tumors is “not reached”. This compound gave a tumor volume in the data set on U87MG tumors (day 14 after treatment) of 140.28 ± 76.36 mm^3. Further, the “systemic toxicity by monitoring body weight” value in the data set with HT-1080-FAP tumors [1] (HT-1080-FAP tumor-bearing mice, 29.6 MBq) is “No systemic toxicity”. The “tumor growth after radioligand therapy” value in the data set on HT-1080-FAP tumors [1] (HT-1080-FAP, single dose 29.6 MBq) is listed as “significant inhibition of tumor growth”. The “hematoxylin and eosin staining of selected nontarget organs” value in the data set with HT-1080-FAP tumors [1] (organs collected on day 22, versus control) is “no differences between the control and radioligand therapy groups”. Further, the “in vitro stability (demetallation / free radioactivity)” value in data set [2] is reported as “highly stable”; in data set [2] (listed as 177Lu-DOTA-4P[FAPI]4) it was “neither significant demetallation nor free radioactivity was observed”. In the data set on HT-1080-FAP tumors [3] (setting [4]), this compound gave a kidney uptake of 6.6 ± 0.2 %ID/g. The same compound came in with a liver uptake with HT-1080-FAP tumors [3] (setting [4]) of 6.3 ± 0.5 %ID/g. The compound also had a spleen uptake in the data set with HT-1080-FAP tumors [3] (setting [4]) of 5.1 ± 0.7 %ID/g. Also, the tumor uptake is on record as 21.4 ± 1.7 %ID/g with HT-1080-FAP tumors [3] (24 h after injection), 19.2 ± 0.6 %ID/g in the data set on HT-1080-FAP tumors [3] (48 h after injection), 18.8 ± 2.1 %ID/g in the data set with HT-1080-FAP tumors [3] (72 h after injection) and 14.8 ± 0.9 %ID/g in the data set on HT-1080-FAP tumors [3] (96 h after injection).
